In publication PMC6213047, “Design of Antibacterial Agents: Alkyl Dihydroxybenzoates against Xanthomonas citri subsp. citri” (International Journal of Molecular Sciences, 2018):
In brackets after ≈: the same amount, converted by molar mass. Like-named read-outs stand apart in the source and are kept apart here.

Assays:
[1] = tested on: Huh-7.5 (human hepatoma cell line); assay: Cytotoxicity MTT assay, Huh-7.5; assay type: cell-based; details: MTT; for IC50: 24 h treatment, read-out: IC50 Huh-7,5
Method: (§1) This test is based on the reduction of 3-(4,5-dimethyl-2-thiazolyl)-2,5-diphenyl-2-tetrazole bromide by viable cells, with formation of violet insoluble formazan crystals. Five cell lines were used in order to evaluate the cytotoxic effect of the compounds as a whole.
(§2) The cytotoxicity of compounds 4, 16, 28 and copper oxychloride was determined by MTT assay. The cell lines used were HaCaT (human keratinocyte cell line—CLS 300493), Huh-7.5 (human hepatoma cell line—ATCC® PTA-8561), MRC-5 (human lung fibroblast cell line—ATCC CCL-171), VERO (monkey kidney epithelial cell line—ATCC® CCL81) and ACHN (human renal adenocarcinoma cell line—ATCC® CRL1611). The cells were cultured in appropriate medium recommended by the American Type Culture Collection.
(§3) The assay was performed with the concentration of 10^4 cells for both cell lines, distributed in 96-well plates and incubated at 37 °C in a 5% CO2 controlled atmosphere oven for 24 h. After the incubation period, the cells were treated with the compounds with a range of 1.56–200 μmol L^−1 and incubated for 24 h. The supernatant was removed, then 100 μL of 3-(4,5-dimethyl-2-thiazolyl)-2,5-diphenyl-2H-tetrazolium (MTT) salt at 1 mg mL^−1 diluted in DMEM medium (Gibco Life Technologies, Gaithersburg, MD, USA) was added and incubated for 30 min. Subsequently, the MTT was removed, then 100 μL of DMSO under agitation for 5 min at 60 rpm was added. The plates were read at 570 nm in a FLUOstar Omega/BMG LABTECH plate reader, Offenburg, BW, DE. We carried out the experiments in triplicate and three independent events for statistical analysis (GraphPad Software, San Diego, CA, USA). The MTT assay is based on the tetrazolium salt (yellow-colored) reduction to formazan (purple-colored) by metabolically active cells.

[2] = tested on: VERO (monkey kidney epithelial cell line); assay: Cytotoxicity MTT assay, VERO; assay type: cell-based; details: MTT; for IC50: 24 h treatment, read-out: IC50 VERO
Method: as §1, §2, §3

[3] = tested on: MRC-5 (human lung fibroblast cell line); assay: Cytotoxicity MTT assay, MRC-5; assay type: cell-based; details: MTT; for IC50: 24 h treatment, read-out: IC50 MRC-5
Method: as §1, §2, §3

[4] = tested on: ACHN (human renal adenocarcinoma cell line); assay: Cytotoxicity MTT assay, ACHN; assay type: cell-based; details: MTT; for IC50: 24 h treatment, read-out: IC50 ACHN
Method: as §1, §2, §3

[5] = tested on: X. citri subsp. citri strain 306 (IBSBF 1594); assay: MIC by Resazurin Microtiter Assay (REMA); assay type: cell-based, Xanthomonas citri subsp. citri; details: REMA, NYG medium, 29 °C, 12 h
Method: The antibacterial potential of carboxylic acids and their esters were compared to copper oxychloride (a commercial active often used to combat citrus canker). Minimal inhibitory concentration (MIC) values were determined by REMA assay, which measures cellular respiratory activity.
The antibacterial activity of alkyl dihydroxybenzoates and the determination of minimum inhibition concentration (MIC) were performed by the fluorimetric method Resazurin Microtiter Assay (REMA) with some modifications. An overnight culture of X. citri subsp. citri strain 306 (IBSBF 1594) was grown in 20 mL in Nitrogen Yeast Glycerol (NYG) at 29 °C in constant agitation of 180–200 rpm. After 12 h, the Xcc inoculum was dispersed in NYG medium and distributed into a 96 well microtiter plate to a final volume of 100 μL per well (10^5 CFU per well). Stock solutions of tested compounds at 10 mg mL^−1 were prepared in dimethyl sulfoxide (DMSO) and dispersed in NYG medium to obtain 1% DMSO and the final compound concentration range of 0.78–100 μg mL^−1. The negative control was constituted of 100 μL culture medium. In addition, the copper oxychloride was tested as a comparison to alkyl dihydroxybenzoates and kanamycin (20 μg mL^−1), which was used as a control antibiotic. The plate was subsequently incubated at 29 °C for 12 h, and 15 μg mL^−1 freshly prepared resazurin solution in water was added to each well, and the plate was incubated for 2 h. The fluorescence was determined on a Synergy H1 (BioTek, Winooski, VT, USA) microplate reader using the excitation and emission filters at wavelengths of 530 and 590 nm respectively. After the REMA assay, the minimum bactericidal concentration (CBM) assay was performed using a 96-pin stainless steel plate replicator, accurately transferring the wells from the REMA plate to Petri dishes Petri dishes were incubated in oven B.O.D. at 29 °C for 24 to 48 h. The experiments were performed in triplicate.

[6] = tested on: HaCaT (human keratinocyte cell line); assay: Cytotoxicity MTT assay, HaCaT; assay type: cell-based; details: MTT; for IC50: 24 h treatment, read-out: IC50 HaCaT
Method: as §1, §2, §3

[7] = tested on: Xanthomonas citri subsp. citri; assay: Growth curve of Xcc (OD 600 nm); assay type: cell-based; details: MIC and ½ MIC, 72 h
Method: According to the growth curves of the positive control (PC) and vehicle control (DMSO), it was observed that Xcc reaches the maximum growth phase in a period of 15 h. […] The early growth inhibition (lag phase), which happens in the first hours of contact (period of the first cellular divisions) can be a dynamic process. […] This can be explained because the compounds have bacteriostatic action; that is, as the time passes, the cells become able to recover and restart doubling. Another important finding is that the lag phase consists in the cell adaptation to the new medium conditions and the bacterial population is smaller in relation to the exponential phase facilitates the action of the compounds in the first hours (Figure 1).
An isolated colony of Xanthomonas citri subsp. citri was inoculated in NYG medium for 12 h at 29 °C. After this, the optical density (OD 600 nm) was measured and adjusted to ~0.1. […] Optical density reading was measured on a Synergy H1-BioTek plate reader every 30 min for 72 h. The growth curves were plotted with GraphPad Prism software. At the same time, the degradation assay was performed, solubilizing the compounds in DMSO, which were later incorporated in NYG medium. Later, we scanned the compounds to measure the absorbance values from 210 to 700 nm, and the maximum lambda value of each compound was selected after scanning. After that, punctual readings were carried out every 30 min for 72 h.

[8] = tested on: X. citri subsp. citri strain 306 (IBSBF 1594); details: anti-Xcc, previous study ref 25; cited from earlier work
[9] = tested on: Xcc cells membrane integrity; assay: Cellular membrane permeability of Xcc, Live/Dead BacLight kit; assay type: cell-based, Xanthomonas citri subsp. citri; details: compounds at ¼ MIC, 15 min; nisin as positive control
Method: Membrane integrity was measured by using the commercial assay Live/Dead BacLight® bacterial viability kit (Invitrogen, Carlsbad, CA, USA). We observed cells with intact membrane in fluorescent blue (SYTO 9) and cells with disturbance or affected membrane integrity in red or pink (propidium iodide). The data analyses were plotted as the percentage of cells permeated by propidium iodide (Figure 2).
Phase contrast microscopy was used to observe changes in cell shape and signs of cell division alteration using an objective lens with a magnification of 100×. To evaluate the Xcc cells’ membrane integrity, the BacLight® kit was used. Mixtures of SYTO 9 dyes and propidium iodide (PI). SYTO 9 (blue) can stain nucleic acids in general—with intact or damaged membranes. On the other hand, PI (red) penetrates only the bacteria with damaged membranes, causing overlap in the fluorescence of SYTO 9. Therefore, using a mixture of the dyes, the bacteria with disturbed cell membranes are stained in fluorescent red and the intact cell membranes are stained in fluorescent blue. […] Cellular immobilization was performed on slides containing 1% agarose gel in 0.85% saline buffer. The slides were prepared with 1.0 mL of the agarose solution, which was dispersed in optical microscopy slides and on each slide another slide was placed so that the gel continued like a thin film and was of homogeneous height. The slides were dried at room temperature for approximately 20 min and opened at the time of use, when 10 μL of the cell suspension was deposited in the center and covered with the cover slip. The cells were visualized using the Olympus BX-61 optical microscope equipped with OrcaFlash 2.8 monochrome camera (Hamamatsu, Shizuoka, Japan). Cell Sensation software v11 (Olympus) was used to document and analyze the images.

[10] = 24 h, unit as in text for copper oxychloride

Compound	IC50 [1] [µM]	IC50 [2] [µM]	IC50 [3] [µM]	IC50 [4] [µM]	MIC [5] [µg/mL]	MIC ([5]; read-out: MIC in μM) [µM]	IC50 [6] [µM]	IC50 Huh-7.5 [1, 10]	effect on Xcc growth curve [7]	IC50 VERO [2, 10]	IC50 MRC-5 [3, 10]	IC50 ACHN [4, 10]	IC50 HaCaT [6, 10]	MIC [8] [µM]	percentage of cells permeated by propidium iodide [9] [%]
NC[C@H]1O[C@H](O[C@H]2[C@H](O)[C@@H](O[C@H]3O[C@H](CO)[C@@H](O)[C@H](N)[C@H]3O)[C@H](N)C[C@@H]2N)[C@H](O)[C@@H](O)[C@@H]1O [Kanamycin, kanamycin, reference compound]	> 200	> 200	> 200	> 200	19.9	40	> 200	–	–	–	–	–	–	–	–
[Cl-].[Cu+2].[Cu+2].[OH-].[OH-].[OH-] [copper oxychloride, reference compound]	> 200	> 200	> 200	> 200	43.1	–	> 200	above 200 μg mL^−1	inactive	above 200 μg mL^−1	above 200 μg mL^−1	above 200 μg mL^−1	above 200 μg mL^−1	–	–
CCCCCCCOC(=O)c1cc(O)c(O)c(O)c1 [heptyl gallate]	–	–	–	–	–	–	–	–	–	–	–	–	–	116 (≈ 31.1 µg/mL)	–
nisin [reference compound]	–	–	–	–	–	–	–	–	–	–	–	–	–	–	79.47
